Test results reported in article PMC7104285, “Enzymatic Degradation of p-Nitrophenyl Esters, Polyethylene Terephthalate, Cutin, and Suberin by Sub1, a Suberinase Encoded by the Plant Pathogen Streptomyces scabies” (Microbes and Environments, 2020).

System: T1, Sub1
T1 construct: signal peptide removed; pET-30a(+) NcoI/XhoI, His6-tagged (tag kept), expressed in E. coli SHuffle T7
Assay: spectrophotometric p-nitrophenol release at […] nm, Michaelis-Menten fit
Format: biochemical, Streptomyces scabiei
Details: Tris-HCl 20 mM, pH 7.5, room temperature; Triton X-100 (0.5%) apparently present

## CCCC(=O)Oc1ccc([N+](=O)[O-])cc1 [p-nitrophenyl butyrate]
  Km: 570 ± 40 µM
